Assay results from US12162934B2, “Gremlin-1 antagonist for the prevention and treatment of cancer” (UCB BIOPHARMA SRL, priority 2018, dated 2024).

Assays:
5TGM1.Bmx1 MM PCs = test: 5TGM1/KaLwRij mouse model of multiple myeloma, antibody after tumour cell inoculation; format: in vivo; details: for Reduction in MM tumour burden (BLI): 30 mg/kg s.c. every 3 days from 3 days post-inoculation, 4 weeks
Description: Targeting Grem1 in an immunocompetent murine model of systemic MM: C57BL/KaLwRij mice (6-8-week-old) were inoculated with 5×10^5 5TGM1.Bmx1 cells via tail vein injection. Three days post-inoculation with 5TGM1.Bmx1 MM PCs, KaLwRij mice were administered with 30 mg/kg Grem1-neutralising antibody Ab7326 or IgG control Ab101.4 (UCB-Pharma, UK) by subcutaneous (s.c.) injection. Mice were treated every 3 days for the duration of the 4-week model. Tumour burden was monitored weekly by BLI as previously described. At the end of the experiment, blood was collected by tail bleed, centrifuged at 2100 g for 10 min and serum collected. Serum paraprotein levels were analysed using the Hydragel 30 β1β2 kit (Sebia Electrophoresis, Georgia, USA) following the instructions of the manufacturer. The band corresponding to paraprotein was quantitated relative to serum albumin levels. (SAAMRI Animal Ethics SAM165)

[1] = test system: Foxl1, Wnt5A and Wnt2B expression; test: In situ hybridisation of Foxl1 and Wnt ligands in Vil1-Grem1 villus stroma; format: in vivo, mouse
Description: To investigate the source of Wnt ligand expression in the villus ectopic crypts in antibody treated and untreated Vil1-Grem1 mice (n=4) we used Foxl1 in situ hybridization (ISH) to identify sub-epithelial telocyte cells as described by Shoshkes-Carmel et al. (2018). Foxl1 expression levels were quantified using the HALO image analysis software.
Paraffin blocks were sectioned (thickness=[…]) using DEPC (Sigma) treated H2O and sections were baked for 2 hours at 60° C. Tissue was deparaffinised and treated with RNAscope Hydrogen Peroxide (ACD 322335) for 10 min at room temperature (RT). Antigen retrieval was performed for 15 minutes using RNAscope 1× Target Retrieval Reagents (1:10 ACD 322000) at 100° C. Samples were treated with RNAscope Protease Plus (ACD 322331) for 30 minutes at 40° C. using an HybEZ Hybridization System (ACD). Probes were incubated for 2 h at 40° C. Probes used were as follows: LGR4 (ACD 318321), LGR5 (ACD 312171), FZD5 (ACD 404911), FZD7 (ACD 534101), WNT2B (ACD 405031), WNT5A (ACD 316791), WNT5A-C3 (ACD, 316791-C3) and FOXL1 (ACD 407401). Slides were counter-stained using Haematoxylin […] or DAPI (Fluorescent).
Slides were scanned at 20× magnification using an Aperio CS2 Digital Pathology Scanner (Leica Biosystems). […] Foxl1 expression levels were quantified using the HALO image analysis platform (PerkinElmer) and expressed as % of DAB staining per area. […]

[2] = biological target: T1, BMP-2-Gremlin-1 complexes (Homo sapiens, UniProt O60565); test: SMAD phosphorylation assay: displacement of BMP-2 from Gremlin 1-BMP complexes; format: cell-based; details: for Displacement of BMP-2 from Gremlin 1-BMP complexes (SMAD phosphorylation): BMP 2 50 ng/ml
T1 sequence (O60565 25-184): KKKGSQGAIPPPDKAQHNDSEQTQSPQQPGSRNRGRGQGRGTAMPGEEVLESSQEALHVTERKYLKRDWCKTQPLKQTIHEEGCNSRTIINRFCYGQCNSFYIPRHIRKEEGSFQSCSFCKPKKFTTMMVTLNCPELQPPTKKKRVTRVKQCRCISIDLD
Description: Experiments were again performed using lung fibroblasts from idiopathic pulmonary fibrosis patients. rhBMP-2 or rhBMP 4/7 were preincubated with rhGremlin-1 for 1 hour at room temperature. The BMP-2- or BMP4/7-Gremlin-1 complexes were incubated with different concentrations of the anti-Gremlin-1 antibodies overnight at 4° C. Antibody concentrations represent the final concentration on the plate.

Vil1-Grem1 mice = test: Vil1-Grem1 mouse polyposis model (phenotype, survival); details: for median survival: vehicle 242 days
rhGremlin-1 = biological target: T2, rhGremlin-1 (Homo sapiens, UniProt O60565); test: SMAD phosphorylation assay: restoration of p-SMAD signalling, lung fibroblasts from idiopathic pulmonary fibrosis patients; format: cell-based
T2 sequence (O60565 25-184): T1 sequence (O60565 25-184)
Description: Antibodies were screened using the Hek-Id1 reporter gene assay described in Example 3 and by measuring SMAD phosphorylation. SMAD1, 5 and 8 are phosphorylated upon BMP signalling. Inhibitors of Gremlin-1 therefore increase SMAD phosphorylation.
SMAD phosphorylation assays were conducted on A549 cells or on human lung fibroblasts. Phosphorylation levels were determined using MSD.
Results are shown as a percentage of SMAD phosphorylation by BMP alone (control BMP). Experiments were performed using lung fibroblasts from idiopathic pulmonary fibrosis patients. rhGremlin-1 and the anti-Gremlin-1 antibodies were preincubated for 45 minutes at room temperature. rhGremlin-1 and the anti-Gremlin-1 antibodies were then added with BMP to the cells for 30 minutes.

[3] = test system: PyMT-B01 mouse breast cancer cells; test: PyMT-B01 breast cancer model in C57BL6 mice (BLI); format: in vivo
Description: PyMT-B01: 5-week old C57BL6 immunocompetent mice were subcutaneously (s.c) administered two 30 mg/kg doses of anti-Grem1 antibody Ab7326 or IgG control, Ab101.4, the week prior to tumour cell inoculation. 1×10^5 luciferase expressing PyMT-B01 mouse breast cancer cells were injected systemically via the caudal artery (CA).
Treatment continued twice weekly for the duration of the study. At weekly intervals, mice were administered 150 mg/kg luciferin intraperitoneally (i.p) and imaged using the Xenogen IVIS Bioluminescence Imaging System, and tumour burden was quantitated using Living Image software. The study ended on day 13 and day 22 post-tumour cell injection for the PyMT-B01 and MDA-MB-231 models respectively, according to animal ethics requirements. Organs were dissected upon culling animals and BLI imaged ex vivo for analysis of tumour metastasis.

## Ab7326: allosteric inhibitory anti-Gremlin-1 antibody from a naïve human library; CDRs SEQ ID NOS 4 to 9; mouse IgG1 in mouse experiments
5TGM1.Bmx1 MM PCs; vs IgG control
  Reduction in MM tumour burden (BLI): ~50%
5TGM1.Bmx1 MM PCs; vs IgG control, listed as Grem1-neutralising antibody
  Reduction in MM tumour burden (BLI): approximately 50%
5TGM1.Bmx1 MM PCs; antibody after tumour cell inoculation, vs IgG control
  Tumour burden in the hindlimb bones (BLI): significant reduction
5TGM1.Bmx1 MM PCs; post-tumour cell inoculation group
  Splenic tumour burden: downwards trend
5TGM1.Bmx1 MM PCs; week 4, vs IgG control
  M-spike intensity relative to serum albumin (SPEP): significantly lower
[1]; antibody-treated Vil1-Grem1 mice
  Stromal Wnt ligand (5A and 2B) expression (ISH): abrogated Wnt ligand expression
[1]; antibody-treated Vil1-Grem1 vs WT p=0.4864
  Villus stromal Foxl1 expression (ISH): restored Foxl1 expression levels
[2]; antibody 0.63 μg/ml
  Displacement of BMP-2 from Gremlin 1-BMP complexes (SMAD phosphorylation): 97.0%
[2]; antibody 1.27 μg/ml
  Displacement of BMP-2 from Gremlin 1-BMP complexes (SMAD phosphorylation): 102.8%
[2]; antibody 2.55 μg/ml
  Displacement of BMP-2 from Gremlin 1-BMP complexes (SMAD phosphorylation): 103.2%
[2]; antibody 5.1 μg/ml
  Displacement of BMP-2 from Gremlin 1-BMP complexes (SMAD phosphorylation): 100.3%
[2]; antibody 10.2 μg/ml
  Displacement of BMP-2 from Gremlin 1-BMP complexes (SMAD phosphorylation): 103.8%
[2]; antibody 20.3 μg/ml
  Displacement of BMP-2 from Gremlin 1-BMP complexes (SMAD phosphorylation): 99.4%
[2]; antibody 40.6 μg/ml
  Displacement of BMP-2 from Gremlin 1-BMP complexes (SMAD phosphorylation): 101.5%
[2]; antibody 81.3 μg/ml
  Displacement of BMP-2 from Gremlin 1-BMP complexes (SMAD phosphorylation): 103.7%
[2]; BMP-2 or BMP4/7, at much lower concentrations than comparison antibody 2484
  Displacement of already complexed BMP from Gremlin 1-BMP complexes: can displace already complexed BMP-2 or BMP4/7
Vil1-Grem1 mice; 30 mg/kg twice weekly for 6 weeks
  Villus ectopic crypt formation and cell fate determination (immunohistochemical staining): reversal of villus ectopic crypt formation and deranged cell fate determination
Vil1-Grem1 mice; 30 mg/kg twice weekly subcutaneous for 6 weeks
  Pan-intestinal polyposis phenotype: highly significant abrogation
Vil1-Grem1 mice; 30 mg/kg weekly subcutaneous from 6 weeks of age, prolonged dosing
  Animal lifespan: significantly prolongs animal lifespan
Vil1-Grem1 mice; Grem1 initiated polyposis models, animals treated for more than 400 days
  Adverse events: No consistent adverse events have been observed
Vil1-Grem1 mice; early stage treatment (42 days), 30 mg/kg weekly
  median survival: 540 days
Vil1-Grem1 mice; established polyposis, 30 mg/kg weekly from 5 months
  median survival: 477 days
Vil1-Grem1 mice; established polyposis, over 4 weeks of treatment
  Vil1-Grem1 intestinal phenotype at timed sacrifice: reversion of the Vil1-Grem1 intestinal phenotype
Vil1-Grem1 mice; late-stage treatment (120 days), 30 mg/kg weekly
  median survival: 519 days
rhGremlin-1; BMP 2 50 ng/ml
  Restoration of p-SMAD signalling, percentage of SMAD phosphorylation by BMP alone: 107.2%
rhGremlin-1; BMP 4 25 ng/ml
  Restoration of p-SMAD signalling, percentage of SMAD phosphorylation by BMP alone: 110.0%
rhGremlin-1; BMP4/7 50 ng/ml
  Restoration of p-SMAD signalling, percentage of SMAD phosphorylation by BMP alone: 127.0%
rhGremlin-1; BMP 7 200 ng/ml
  Restoration of p-SMAD signalling, percentage of SMAD phosphorylation by BMP alone: 108.0%
rhGremlin-1; BMP-2/7 50 ng/ml
  Restoration of p-SMAD signalling, percentage of SMAD phosphorylation by BMP alone: 128.5%
[3]; day 13, 30 mg/kg s.c. twice weekly, vs isotype control Ab101.4
  Reduction in overall tumour burden (BLI): 35%
[3]; vs isotype control
  Liver metastatic tumour burden (BLI): downward trend
  Lung metastatic tumour burden (ex vivo BLI): statistically significant reduction
